In BigSolDB 2.1:

Cc1ccc(-c2ncc(Cl)cc2-c2ccc(S(C)(=O)=O)cc2)cn1
solubility (mole fraction)
Details | 293.2 K | 298.2 K | 303.2 K | 308.2 K | 313.2 K
in 1,4-butanediol | 0.0605 | 0.0723 | 0.0873 | 0.104 | 0.124
in 1,4-dioxane | 0.0445 | 0.073 | 0.111 | 0.173 | 0.265
in DMAc | 0.0481 | 0.0811 | 0.141 | 0.236 | 0.387
in DMF | 0.0369 | 0.069 | 0.122 | 0.215 | 0.374
in DMSO | 0.0292 | 0.0605 | 0.126 | 0.253 | 0.495
in NMP | 0.0658 | 0.108 | 0.169 | 0.265 | 0.411
in ethanol | 0.0337 | 0.0537 | 0.0807 | 0.121 | 0.182
in ethylene glycol | 0.113 | 0.119 | 0.129 | 0.139 | 0.153
in formamide | 0.0586 | 0.113 | 0.225 | 0.425 | 0.779
in glycerin | 0.0558 | 0.0566 | 0.0577 | 0.0593 | 0.0625
in isopropanol | 0.0282 | 0.0452 | 0.0668 | 0.1 | 0.149
in methanol | 0.0241 | 0.0379 | 0.0561 | 0.0843 | 0.125
in n-propanol | 0.0505 | 0.0788 | 0.111 | 0.164 | 0.238
in propylene glycol | 0.0472 | 0.0605 | 0.0754 | 0.0942 | 0.117
in water | 1.36e-05 | 1.58e-05 | 1.86e-05 | 2.12e-05 | 2.44e-05

Details | solubility (mole fraction)
in PEG-200, 293.2 K | 0.116
in PEG-200, 298.2 K | 0.135
in PEG-200, 303.2 K | 0.156
in PEG-200, 308.2 K | 0.176
in PEG-200, 313.2 K | 0.201
in PEG-400, 293.2 K | 0.211
in PEG-400, 298.2 K | 0.238
in PEG-400, 303.2 K | 0.275
in PEG-400, 308.2 K | 0.311
in PEG-400, 313.2 K | 0.351
in PEG-600, 293.2 K | 0.329
in PEG-600, 298.2 K | 0.354
in PEG-600, 303.2 K | 0.389
in PEG-600, 308.2 K | 0.422
in PEG-600, 313.2 K | 0.456
